US9693982B2, “Composition for amelioration of hypoalbuminemia” (OTSUKA PHARMACEUTICAL FACTORY, INC., priority 2010, dated 2017)

System: albumin mRNA
Assay: Albumin mRNA expression of cultured human hepatocytes (Experiment 1, real time RT-PCR)
Format: cell-based
Conditions: for Expression level of albumin mRNA (mean ± SD): 24 hours after addition, ratio based on HPRT1 mRNA (regarded as 1), human hepatocytes Lot 100, triplicate; for Effect on albumin mRNA expression level (in words): human hepatocytes, 20 mM, 60 mM
Description: In this test, human primary cultured hepatocytes were cultured by each test solution to check a change of albumin mRNA expressional potency and a change of secretion level of albumin. The test was performed as follows.
Albumin mRNA and HPRT1 mRNA were measured. The nucleotide sequences of albumin and HPRT1 are registered in the GenBank as follows and each nucleotide sequence follows the sequence registered.
Note that, HPRT1, which is a house keeping gene serving as a control, was measured in the same test. The sequences of primers and probes used in measurement of albumin are made public in Nishimura, M., Yoshitsugu, H., Yokoi, T., Tateno, C., Kataoka, M., Horie, T., Yoshizato, K. and Naito, S.: Evaluation of mRNA expression of human drug-metabolizing enzymes and transporters in chimeric mouse with humanized liver. Xenobiotica, 35: 877-890 (2005). Furthermore, the sequences of primers and probes used in measurement of HPRT1 are made public in Nishimura, M., Naito, S. and Yokoi, T.: Tissue-specific mRNA expression profiles of human nuclear receptor subfamilies. Drug Metab. Pharmacokinet., 19: 135-149 (2004).
Furthermore, mRNA was quantified by use of the primer pairs and probe represented by individual sequences (the position of initiation codon follows the each nucleotide sequence registered) shown in the following Table 1 and in accordance with RT-PCR (Real-time quantitative reverse transcription-polymerase reaction). Each of the primers and probe was prepared by an automatic DNA synthesizer.
As the test solution of the Livact composition, a Livact composition was dissolved such that the concentrations of Ile, Leu, and Val became 13.8 mM, 27.7 mM, and 18.5 mM, respectively after blending (60 mM as the concentration of the Livact composition test solution). Note that, in the dissolution procedure, a Livact composition was dissolved in Buffer A and then a medium was added in an amount 1/10 as low as that of Buffer A.
As an Ile, Leu or Val solution, Ile, Leu or Val was dissolved so as to have a concentration of 60 mM. Note that, in the dissolution procedure, Ile, Leu or Val was dissolved in Buffer A and then a medium was added in an amount 1/10 as low as that of Buffer A.
The Livact composition test solution prepared in Section (2-3) and Ile, Leu or Val solution prepared in Section (2-4) were diluted 3 fold with Buffer B to prepare a 20 mM solution.
According to a method of Nishimura et al. (Nishimura, M., Yoshitsugu, H., Naito, S. and Hiraoka, I.: Evaluation of gene induction of drug-metabolizing enzymes and transporters in primary culture of human hepatocytes using high-sensitivity real-time reverse transcription PCR. Yakugaku Zasshi, 122: 339-361 (2002)), 1×10^5 cells/400 μL was dispensed in each well of a 24 well plate and cultured in a CO2 incubator. After 3 hours, medium exchange was performed. Further after 21 hours (24 hours after inoculation), medium exchange was performed. Thereafter, the medium was exchanged every 24 hours. Note that, the amount of liquid medium to be exchanged was set at 400 μL/well. Furthermore, exchange to each test solution was performed at the after 48 hours at which medium exchange was performed.
After human hepatocytes (1×10^5 viable cells/0.4 mL/well) were inoculated, medium exchange was performed 3 hours and 24 hours after inoculation. Note that, the viability at the inoculating time was 90.4% (Lot 100). Then, 48 hours after inoculation, a test substance was added and 24 hours after addition of the test substance was initiated, Total RNA was extracted (using Rneasy Mini Kit). Quantification of mRNA of albumin and HPRT1 was performed by real time RT-PCR. Note that, HPRT1, which is a house keeping gene, was used as an internal standard.
After the medium was suctioned, Total RNA was extracted by use of QIA shredder and Rneasy Mini Kit. Now, a preparation method using the Kit will be described below. […]

Row | SMILES | Expression level of albumin mRNA (mean ± SD) (20 mM total test substance) | Expression level of albumin mRNA (mean ± SD) (60 mM total test substance) | Effect on albumin mRNA expression level (in words)
1 | CC[C@H](C)[C@H](N)C(=O)O [Ile, Isoleucine] | 174 ± 33 | 222 ± 27 | increases in an additive manner
2 | CC(C)C[C@H](N)C(=O)O [Leu, Leucine] | 215 ± 63 | 255 ± 53 | increases in an additive manner
3 | CC(C)[C@H](N)C(=O)O [Val, Valine, reference compound] | 127 ± 17 | 118 ± 10 | –
